Where a name gives a salt, the structure may show the parent alone.
Tested on: TMK-1 human gastric carcinoma cells implanted into the stomachs of nude mice
Assay: Treatment of established human gastric cancer tumors growing in murine gastric walls; Lyve-1 immunohistochemical determination of the area of lymphatic vessels
Format: in vivo, athymic BALB/c nude mice
Conditions: TMK-1 orthotopic gastric tumors in nude mice, imatinib mesylate 50 mg/kg daily oral gavage for 28 days, started 14 days after implantation, versus control (water), P<0.05
Description: Animals and orthotopic implantation of tumor cells. Male athymic BALB/c nude mice (Charles River Japan, Tokyo) were maintained under specific pathogen-free conditions and used at 5 weeks of age. Subconfluent gastric cancer cells (TMK-1 or KKLS cells) to be used for implantation were harvested by brief treatment with 0.25% trypsin and 0.02% ethylenediamine tetraacetic acid, and then re-suspended to a final concentration of 2.0×10^7 cells/mL Hanks' solution. With the use of a 30-gauge needle attached to a 1-mL syringe, cells (1×10^6 cells in 50 μl) were implanted into the gastric walls in the nude mice under observation with a zoom stereomicroscope. […]
Treatment of established human gastric cancer tumors growing in murine gastric walls. Fourteen days after orthotopic implantation of TMK-1 cells, mice (n=10 each group) were randomly assigned to receive one of the following two treatments daily oral gavage of water (control group) or daily oral gavage of imatinib mesylate (50 mg/kg, optimal biological dose as determined previously (Hwang R F, et al. Clin Cancer Res 2003; 9: 6534-44) The treatments continued for 28 days. All therapy experiments were performed twice. The mice bearing orthotopic tumors were euthanised by methophane on day 29. For immunohistochemistry, the tumor tissues were fixed in formalin and embedded in paraffin. […]

Cc1ccc(NC(=O)c2ccc(CN3CCN(C)CC3)cc2)cc1Nc1nccc(-c2cccnc2)n1 [imatinib mesylate]
area of lymphatic vessels in tumors (Lyve-1 immunohistochemistry): reduced areas of lymphatic vessels | area of lymphatic vessels in tumors (Lyve-1 immunohistochemistry) (listed as imatinib): significantly reduced the area of lymphatic vessels

Reference: patent publication US9101630B2, “Use of PDGF-R inhibitors for the treatment of lymph node metastasis of gastric cancer” (priority 2010, dated 2015)
